What was measured:
Test in all cases: cells
NB5 = format: functional, cell-based, Homo sapiens; settings: Homo sapiens, NB5;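 further: growth inhibition of NB5 cells, read out as cell viability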
Description: SANGER: Inhibition of human NB5 cell growth in a cell viability assay.

LU-134-A = format: functional, cell-based; settings: Homo sapiens
Description: SANGER: Inhibition of human LU-134-A cell growth in a cell viability assay.

Hs-578T = format: functional, cell-based, Homo sapiens; settings: Homo sapiens, Hs-578T
Description: SANGER: Inhibition of human Hs-578-T cell growth in a cell viability assay.

MS-1 = format: functional, cell-based; settings: Homo sapiens
Description: SANGER: Inhibition of human MS-1 cell growth in a cell viability assay.

EW-18 = format: functional, cell-based; settings: Homo sapiens;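 further: growth inhibition of EW-18 cells, read out by a cell viability assay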
Description: SANGER: Inhibition of human EW-18 cell growth in a cell viability assay.

no-11 = format: functional, cell-based, Homo sapiens; settings: Homo sapiens;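 further: growth inhibition of human NO-11 cells, read out with a cell viability assay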
Description: SANGER: Inhibition of human no-11 cell growth in a cell viability assay.

CTB-1 = format: functional, cell-based; settings: Homo sapiens
Description: SANGER: Inhibition of human CTB-1 cell growth in a cell viability assay.

CAL-72 = format: functional, cell-based, Homo sapiens; settings: Homo sapiens, CAL-72;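 further: cell viability assay measuring inhibition of proliferation in the CAL-72 cell line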
Description: SANGER: Inhibition of human CAL-72 cell growth in a cell viability assay.

NCI-H661 = format: functional, cell-based, Homo sapiens; settings: Homo sapiens, NCI-H661;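 further: cell viability assay read-out, IC50 being the concentration that inhibits growth of the cells by half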
Description: SANGER: Inhibition of human NCI-H661 cell growth in a cell viability assay.

SW1710 = format: functional, cell-based, Homo sapiens; settings: Homo sapiens, SW1710;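 further: growth inhibition of SW1710 cells, determined with a cell viability assay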
Description: SANGER: Inhibition of human SW1710 cell growth in a cell viability assay.

SBC-5 = format: functional, cell-based, Homo sapiens; settings: Homo sapiens, SBC-5;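 further: cell viability assay read-out, IC50 is the concentration that inhibits growth of the cells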
Description: SANGER: Inhibition of human SBC-5 cell growth in a cell viability assay.

SK-PN-DW = format: functional, cell-based; settings: Homo sapiens;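 further: growth inhibition measured with a viability assay on these cells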
Description: SANGER: Inhibition of human SK-PN-DW cell growth in a cell viability assay.

MCF7 = format: functional, cell-based, Homo sapiens; settings: Homo sapiens, MCF7;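 further: growth inhibition of human MCF7 cells, read out with a cell viability assay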
Description: SANGER: Inhibition of human MCF7 cell growth in a cell viability assay.

HCC1419 = format: functional, cell-based, Homo sapiens; settings: Homo sapiens, HCC1419;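 further: growth inhibition of human HCC1419 cells, read out as cell viability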
Description: SANGER: Inhibition of human HCC1419 cell growth in a cell viability assay.

CCRF-CEM = format: functional, cell-based; settings: Homo sapiens;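 further: inhibition of CCRF-CEM cell growth, measured by a cell viability assay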
Description: SANGER: Inhibition of human CCRF-CEM cell growth in a cell viability assay.

HCC38 = format: functional, cell-based, Homo sapiens; settings: Homo sapiens, HCC38;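 further: cell viability assay on the human HCC38 cell line, with IC50 marking the concentration that inhibits cell growth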
Description: SANGER: Inhibition of human HCC38 cell growth in a cell viability assay.

TE-9 = format: functional, cell-based, Homo sapiens; settings: Homo sapiens, TE-9;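 further: cell growth inhibition, measured with a cell viability readout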
Description: SANGER: Inhibition of human TE-9 cell growth in a cell viability assay.

SK-MEL-28 = format: functional, cell-based; settings: Homo sapiens;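 further: growth inhibition of human SK-MEL-28 cells, read out with a cell viability assay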
Description: SANGER: Inhibition of human SK-MEL-28 cell growth in a cell viability assay.

A204 = format: functional, cell-based, Homo sapiens; settings: Homo sapiens, A204;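 further: growth inhibition of human A204 cells, read out with a cell viability assay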
Description: SANGER: Inhibition of human A204 cell growth in a cell viability assay.

M14 = format: functional, cell-based, Homo sapiens; settings: Homo sapiens, M14;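 further: growth inhibition of M14 cells, read out with a cell viability assay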
Description: SANGER: Inhibition of human M14 cell growth in a cell viability assay.

HuP-T4 = format: functional, cell-based, Homo sapiens; settings: Homo sapiens, HuP-T4;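 further: cell viability assay measuring how much HuP-T4 cell growth is inhibited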
Description: SANGER: Inhibition of human HuP-T4 cell growth in a cell viability assay.

CW-2 = format: functional, cell-based, Homo sapiens; settings: Homo sapiens, CW-2;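 further: growth inhibition of CW-2 cells, read out by a cell viability assay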
Description: SANGER: Inhibition of human CW-2 cell growth in a cell viability assay.

U-266 = format: functional, cell-based; settings: Homo sapiens
Description: SANGER: Inhibition of human U-266 cell growth in a cell viability assay.

A-427 = format: functional, cell-based, Homo sapiens; settings: Homo sapiens, A-427;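 further: growth inhibition of human A-427 cells, read out by a cell viability assay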
Description: SANGER: Inhibition of human A427 cell growth in a cell viability assay.

PANC-08-13 = format: functional, cell-based, Homo sapiens; settings: Homo sapiens, PANC-08-13;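 further: cell growth inhibition, measured with a cell viability assay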
Description: SANGER: Inhibition of human PANC-08-13 cell growth in a cell viability assay.

UACC-62 = format: functional, cell-based, Homo sapiens; settings: Homo sapiens, UACC-62;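 further: growth inhibition of human UACC-62 cells, read out by a cell viability assay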
Description: SANGER: Inhibition of human UACC-62 cell growth in a cell viability assay.

NCI-H727 = format: functional, cell-based, Homo sapiens; settings: Homo sapiens, NCI-H727;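 further: growth inhibition of human NCI-H727 cells, read out with a cell viability assay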
Description: SANGER: Inhibition of human NCI-H727 cell growth in a cell viability assay.

RD = format: functional, cell-based, Homo sapiens; settings: Homo sapiens, RD
Description: SANGER: Inhibition of human RD cell growth in a cell viability assay.

NCI-H1581 = format: functional, cell-based, Homo sapiens; settings: Homo sapiens, NCI-H1581;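 further: cell growth inhibition read out by a viability assay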
Description: SANGER: Inhibition of human NCI-H1581 cell growth in a cell viability assay.

NB13 = format: functional, cell-based, Homo sapiens; settings: Homo sapiens, NB13;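 further: cell viability readout measuring growth inhibition of human NB13 cells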
Description: SANGER: Inhibition of human NB13 cell growth in a cell viability assay.

NCI-H2347 = format: functional, cell-based, Homo sapiens; settings: Homo sapiens, NCI-H2347;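 further: growth inhibition of the cell line, read out with a cell viability assay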
Description: SANGER: Inhibition of human NCI-H2347 cell growth in a cell viability assay.

ETK-1 = format: functional, cell-based, Homo sapiens; settings: Homo sapiens, ETK-1;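 further: growth inhibition of human ETK-1 cells, read out with a cell viability assay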
Description: SANGER: Inhibition of human ETK-1 cell growth in a cell viability assay.

BE-13 = format: functional, cell-based; settings: Homo sapiens;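 further: growth inhibition of human BE-13 cells, measured with a cell viability assay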
Description: SANGER: Inhibition of human BE-13 cell growth in a cell viability assay.

CAL-120 = format: functional, cell-based, Homo sapiens; settings: Homo sapiens, CAL-120;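 further: cell growth inhibition, read out as cell viability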
Description: SANGER: Inhibition of human CAL-120 cell growth in a cell viability assay.

CGTH-W-1 = format: functional, cell-based, Homo sapiens; settings: Homo sapiens, CGTH-W-1;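 further: growth inhibition of human CGTH-W-1 cells measured by cell viability assay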
Description: SANGER: Inhibition of human CGTH-W-1 cell growth in a cell viability assay.

NOS-1 = format: functional, cell-based, Homo sapiens; settings: Homo sapiens, NOS-1;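 further: growth inhibition of the human NOS-1 cell line, read out with a cell viability assay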
Description: SANGER: Inhibition of human NOS-1 cell growth in a cell viability assay.

NCI-H1299 = format: functional, cell-based, Homo sapiens; settings: Homo sapiens, NCI-H1299;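 further: growth inhibition of human NCI-H1299 cells, read out by a cell viability assay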
Description: SANGER: Inhibition of human NCI-H1299 cell growth in a cell viability assay.

FaDu = format: functional, cell-based, Homo sapiens; settings: Homo sapiens, FaDu;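 further: cell viability readout of growth inhibition in FaDu cells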
Description: SANGER: Inhibition of human FADU cell growth in a cell viability assay.

RS4-11 = format: functional, cell-based; settings: Homo sapiens;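 further: growth inhibition of RS4-11 cells, read out by a cell viability assay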
Description: SANGER: Inhibition of human RS4-11 cell growth in a cell viability assay.

DMS-114 = format: functional, cell-based, Homo sapiens; settings: Homo sapiens, DMS-114
UO-31 = format: functional, cell-based; settings: Homo sapiens;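 further: cell viability assay measuring inhibition of cell growth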
Description: SANGER: Inhibition of human U031 cell growth in a cell viability assay.

ALL-PO = format: functional, cell-based; settings: Homo sapiens;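 further: growth inhibition of ALL-PO cells, read out by a cell viability assay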
Description: SANGER: Inhibition of human ALL-PO cell growth in a cell viability assay.

KMOE-2 = format: functional, cell-based; settings: Homo sapiens;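 further: growth inhibition of human KMOE-2 cells, read out with a cell viability assay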
Description: SANGER: Inhibition of human KMOE-2 cell growth in a cell viability assay.

NB10 = format: functional, cell-based, Homo sapiens; settings: Homo sapiens, NB10;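 further: growth inhibition of NB10 cells, read out by a cell viability assay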
Description: SANGER: Inhibition of human NB10 cell growth in a cell viability assay.

U-251 = format: functional, cell-based, Homo sapiens; settings: Homo sapiens, U-251;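 further: growth inhibition of human U-251 cells, read out through a cell viability assay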
Description: SANGER: Inhibition of human U251 cell growth in a cell viability assay.

PC-3 = format: functional, cell-based, Homo sapiens; settings: Homo sapiens, PC-3;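 further: cell viability assay measuring growth inhibition of PC-3 cells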
Description: SANGER: Inhibition of human PC-3 cell growth in a cell viability assay.

RCC10RGB = format: functional, cell-based, Homo sapiens; settings: Homo sapiens, RCC10RGB;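 further: growth inhibition of human RCC10RGB cells, read out by a cell viability assay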
Description: SANGER: Inhibition of human RCC10RGB cell growth in a cell viability assay.

HCC1954 = format: functional, cell-based, Homo sapiens; settings: Homo sapiens, HCC1954;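 further: growth inhibition of human HCC1954 cells, read out with a cell viability assay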
Description: SANGER: Inhibition of human HCC1954 cell growth in a cell viability assay.

SW 954 = format: functional, cell-based, Homo sapiens; settings: Homo sapiens, SW 954;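 further: growth inhibition of SW954 human cancer cells, read out as cell viability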
Description: SANGER: Inhibition of human SW954 cell growth in a cell viability assay.

NUGC-3 = format: functional, cell-based, Homo sapiens; settings: Homo sapiens, NUGC-3;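 further: growth inhibition of human NUGC-3 cells, read out with a cell viability assay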
Description: SANGER: Inhibition of human NUGC-3 cell growth in a cell viability assay.

COR-L105 = format: functional, cell-based, Homo sapiens; settings: Homo sapiens, COR-L105;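 further: cell growth inhibition determined with a viability assay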
Description: SANGER: Inhibition of human COR-L105 cell growth in a cell viability assay.

NB6 = format: functional, cell-based, Homo sapiens; settings: Homo sapiens, NB6;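 further: growth inhibition of NB6 cells, read out by a cell viability assay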
Description: SANGER: Inhibition of human NB6 cell growth in a cell viability assay.

NCI-H1437 = format: functional, cell-based, Homo sapiens; settings: Homo sapiens, NCI-H1437;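 further: growth inhibition of human NCI-H1437 cells, read out by a cell viability assay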
Description: SANGER: Inhibition of human NCI-H1437 cell growth in a cell viability assay.

Structure (SMILES): COC(=O)CNC(=O)C(=O)OC
- IC50 (NB5): > 4 mM
- IC50 (LU-134-A): > 4 mM
- IC50 (Hs-578T): 3.12 mM
- IC50 (MS-1): 878 µM
- IC50 (EW-18): 1.51 mM
- IC50 (no-11): 208 µM
- IC50 (CTB-1): 86 µM
- IC50 (CAL-72): 488 µM
- IC50 (NCI-H661): 2.28 mM
- IC50 (SW1710): 277 µM
- IC50 (SBC-5): 1.39 mM
- IC50 (SK-PN-DW): 215 µM
- IC50 (MCF7): > 4 mM
- IC50 (HCC1419): > 4000 µM
- IC50 (CCRF-CEM): 37.8 µM
- IC50 (HCC38): 1.74 mM
- IC50 (TE-9): 951 µM
- IC50 (SK-MEL-28): 569 µM
- IC50 (A204): 398 µM
- IC50 (M14): 1.86 mM
- IC50 (HuP-T4): 128 µM
- IC50 (CW-2): > 4000 µM
- IC50 (U-266): > 4 mM
- IC50 (A-427): 642 µM
- IC50 (PANC-08-13): 1.46 mM
- IC50 (UACC-62): > 4 mM
- IC50 (NCI-H727): > 4 mM
- IC50 (RD): 692 µM
- IC50 (NCI-H1581): 729 µM
- IC50 (NB13): 659 µM
- IC50 (NCI-H2347): 121 µM
- IC50 (ETK-1): 525 µM
- IC50 (BE-13): 180 µM
- IC50 (CAL-120): 806 µM
- IC50 (CGTH-W-1): 489 µM
- IC50 (NOS-1): 772 µM
- IC50 (NCI-H1299): 2.15 mM
- IC50 (FaDu): 99.9 µM
- IC50 (RS4-11): 34.2 µM
- IC50 (DMS-114): > 4 mM
- IC50 (UO-31): 338 µM
- IC50 (ALL-PO): 69.9 µM
- IC50 (KMOE-2): 305 µM
- IC50 (NB10): 524 µM
- IC50 (U-251): 215 µM
- IC50 (PC-3): 418 µM
- IC50 (RCC10RGB): 1.04 mM
- IC50 (HCC1954): 900 µM
- IC50 (SW 954): 85.4 µM
- IC50 (NUGC-3): 1480 µM
- IC50 (COR-L105): 26.4 µM
- IC50 (NB6): 1.92 mM
- IC50 (NCI-H1437): 90.8 µM

Structure (SMILES): CN(C)C/C=C/C(=O)Nc1cc2c(Nc3ccc(F)c(Cl)c3)ncnc2cc1O[C@H]1CCOC1 [AFATINIB]
- IC50 (NB5): > 0.0005 mM
- IC50 (LU-134-A): > 0.0005 mM
- IC50 (Hs-578T): > 0.0005 mM
- IC50 (MS-1): > 0.5 µM
- IC50 (EW-18): > 0.0005 mM
- IC50 (no-11): > 0.5 µM
- IC50 (CTB-1): > 0.5 µM
- IC50 (CAL-72): > 0.5 µM
- IC50 (NCI-H661): > 0.0005 mM
- IC50 (SW1710): > 0.5 µM
- IC50 (SBC-5): > 0.0005 mM
- IC50 (SK-PN-DW): > 0.5 µM
- IC50 (MCF7): > 0.0005 mM
- IC50 (HCC1419): 0.364 µM
- IC50 (CCRF-CEM): > 0.5 µM
- IC50 (HCC38): > 0.0005 mM
- IC50 (TE-9): > 0.5 µM
- IC50 (SK-MEL-28): > 0.5 µM
- IC50 (A204): > 0.5 µM
- IC50 (M14): > 0.0005 mM
- IC50 (HuP-T4): > 0.5 µM
- IC50 (CW-2): 0.469 µM
- IC50 (U-266): > 0.0005 mM
- IC50 (A-427): > 0.5 µM
- IC50 (PANC-08-13): > 0.0005 mM
- IC50 (UACC-62): > 0.0005 mM
- IC50 (NCI-H727): > 0.0005 mM
- IC50 (RD): > 0.5 µM
- IC50 (NCI-H1581): > 0.5 µM
- IC50 (NB13): > 0.5 µM
- IC50 (NCI-H2347): > 0.5 µM
- IC50 (ETK-1): > 0.5 µM
- IC50 (BE-13): > 0.5 µM
- IC50 (CAL-120): > 0.5 µM
- IC50 (CGTH-W-1): > 0.5 µM
- IC50 (NOS-1): > 0.5 µM
- IC50 (NCI-H1299): > 0.0005 mM
- IC50 (FaDu): > 0.5 µM
- IC50 (RS4-11): > 0.5 µM
- IC50 (DMS-114): > 0.0005 mM
- IC50 (UO-31): > 0.5 µM
- IC50 (ALL-PO): > 0.5 µM
- IC50 (KMOE-2): > 0.5 µM
- IC50 (NB10): > 0.5 µM
- IC50 (U-251): > 0.5 µM
- IC50 (PC-3): > 0.5 µM
- IC50 (RCC10RGB): > 0.0005 mM
- IC50 (HCC1954): > 0.5 µM
- IC50 (SW 954): > 0.5 µM
- IC50 (NUGC-3): 0.384 µM
- IC50 (COR-L105): 0.211 µM
- IC50 (NB6): > 0.0005 mM
- IC50 (NCI-H1437): > 0.5 µM

From ChEMBL document CHEMBL1201861, “Genomics of Drug Sensitity in Cancer screening data, Wellcome Trust Sanger Institute”
